What was measured:
[1] = test system: MCF-7 human breast cancer cells; experiment: AlamarBlue cell viability assay; type: cell-based; details: Homo sapiens, MCF7, 72 h
Method: The antiproliferative potential of the synthesised 3-fluoro β-lactams 26–35 and 3,3-difluoro β-lactams 36–45 was evaluated in MCF-7 human breast cancer cells using the AlamarBlue assay, with CA-4 as reference compound (Figure 3). […] The results for the preliminary in vitro antiproliferative screen for 3-fluoro β-lactam compounds (26–29), which contain different substituents at the para position in the B ring, are presented in Figure 3A.
Cells were seeded at a density of 5 × 10^3 cells/well (MCF-7 and MDA-MB-231) and 1 × 10^4 cells/well (HEK-293T) in 96-well plates (200 μL per well). After 24 h, cells were then treated with medium alone, with vehicle (1% ethanol (v/v)) or with CA-4 or β-lactam compounds at 1 μM and 10 μM concentrations. […] Cell proliferation for MCF-7 cells was analysed with the AlamarBlue assay (Invitrogen Corp.) as previously described by us. After 72 h, AlamarBlue (10% (v/v)) was added to each well, and plates were incubated for 3–5 h at 37 °C in the dark. Fluorescence results were obtained with a 96-well fluorimeter with excitation at 530 nm and emission at 590 nm with results recorded as percentage viability relative to vehicle control (100%). Dose–response curves were obtained and IC50 values (concentration of drug resulting in 50% reduction in cell survival) were calculated using Prism (GraphPad Software, Inc., La Jolla, CA, USA).
Figure 3 Preliminary cell viability data for 3-fluoro and 3,3-difluoro β-lactam compounds. (A) 3-Fluoro β-lactam compounds containing different para-substituent ring B 26–29; 3-fluoro β-lactam compounds containing different meta-substituent ring B 30, 32–35; (B) 3-difluoro β-lactam compounds containing different para-substituent ring B 36–39; 3-difluoro β-lactam compounds containing different meta-substituent ring B 40, 42–45 in MCF-7 breast cancer cells. Cell proliferation of MCF-7 cells was determined with an AlamarBlue assay (seeding density […] for 96-well plates). Compound concentrations of either 10 μM or 1 μM for 72 h were used to treat the cells with control wells containing vehicle ethanol (1% v/v) and CA-4 (10 μM and 1 μM). The mean value for three experiments is shown with the ± S.E.M. for three independent experiments.

CCRF-CEM = experiment: NCI 60 cell line screen, Leukaemia; type: cell-based, human
EKVX = experiment: NCI 60 cell line screen, NSCLung; type: cell-based, human
HOP-62 = experiment: NCI 60 cell line screen, NSCLung; type: cell-based, human
HOP-92 = experiment: NCI 60 cell line screen, NSCLung; type: cell-based, human
NCI-H226 = experiment: NCI 60 cell line screen, NSCLung; type: cell-based, human
NCI-H322M = experiment: NCI 60 cell line screen, NSCLung; type: cell-based, human
NCI-H460 = experiment: NCI 60 cell line screen, NSCLung; type: cell-based, human
COLO 205 = experiment: NCI 60 cell line screen, Colon; type: cell-based, human
HCC-2998 = experiment: NCI 60 cell line screen, Colon; type: cell-based, human
HCT-116 = experiment: NCI 60 cell line screen, Colon; type: cell-based, human
HT29 = experiment: NCI 60 cell line screen, Colon; type: cell-based, human
SW-620 = experiment: NCI 60 cell line screen, Colon; type: cell-based, human
SF-295 = experiment: NCI 60 cell line screen, CNS; type: cell-based, human
SNB-75 = experiment: NCI 60 cell line screen, CNS; type: cell-based, human
U251 = experiment: NCI 60 cell line screen, CNS; type: cell-based, human
LOX IMVI = experiment: NCI 60 cell line screen, Melanoma; type: cell-based, human
MDA-MB-435 = experiment: NCI 60 cell line screen, Melanoma; type: cell-based, human
SK-MEL-2 = experiment: NCI 60 cell line screen, Melanoma; type: cell-based, human
SK-MEL-28 = experiment: NCI 60 cell line screen, Melanoma; type: cell-based, human
SK-MEL-5 = experiment: NCI 60 cell line screen, Melanoma; type: cell-based, human
OVCAR-4 = experiment: NCI 60 cell line screen, Ovarian; type: cell-based, human
RXF 393 = experiment: NCI 60 cell line screen, Renal; type: cell-based, human
TK-10 = experiment: NCI 60 cell line screen, Renal; type: cell-based, human
DU-145 = experiment: NCI 60 cell line screen, Prostate; type: cell-based, human
MDA-MB-231/ATCC = experiment: NCI 60 cell line screen, Breast; type: cell-based, human
[2] = Homo sapiens, 5-dose, 48 h, read-out: LC50 (the source's name)

**Q.** What does the source list for COc1ccc(C2C(F)C(=O)N2c2cc(OC)c(OC)c(OC)c2)cc1F (centres unmarked) [Compound 33, 3-Fluoro-4-(3-fluoro-4-methoxyphenyl)-1-(3,4,5-trimethoxyphenyl)azetidin-2-one]?
**A.** viability at 1 µM ([1]; MCF-7, 1 μM, 72 h, read-out: viable cells remaining): 37%; IC50 ([1]; MCF-7, 72 h): 95 nM; TGI (CCRF-CEM; 5-dose, 48 h): >100000 nM; GI50 (CCRF-CEM; Homo sapiens, 5-dose, 48 h): 47.1 nM; inhibition at 10 µM (CCRF-CEM; Homo sapiens, one dose 10 µM): 86.8%; Growth % (CCRF-CEM; one dose 10 µM): 13.16%; TGI (EKVX; 5-dose, 48 h): >100000 nM; GI50 (EKVX; Homo sapiens, 5-dose, 48 h): 203 nM; inhibition at 10 µM (EKVX; Homo sapiens, one dose 10 µM): 27.8%; Growth % (EKVX; one dose 10 µM): 72.16%; TGI (HOP-62; 5-dose, 48 h): >100000 nM; GI50 (HOP-62; Homo sapiens, 5-dose, 48 h): 511 nM; inhibition at 10 µM (HOP-62; Homo sapiens, one dose 10 µM): 68.2%; Growth % (HOP-62; one dose 10 µM): 31.85%; TGI (HOP-92; 5-dose, 48 h): 63900 nM; GI50 (HOP-92; Homo sapiens, 5-dose, 48 h): 266 nM; inhibition at 10 µM (HOP-92; Homo sapiens, one dose 10 µM): 67.7%; Growth % (HOP-92; one dose 10 µM): 32.28%; TGI (NCI-H226; 5-dose, 48 h): >100000 nM; GI50 (NCI-H226; Homo sapiens, 5-dose, 48 h): 22200 nM; inhibition at 10 µM (NCI-H226; Homo sapiens, one dose 10 µM): 41%; Growth % (NCI-H226; one dose 10 µM): 58.99%; TGI (NCI-H322M; 5-dose, 48 h): >100000 nM; GI50 (NCI-H322M; Homo sapiens, 5-dose, 48 h): 1630 nM; inhibition at 10 µM (NCI-H322M; Homo sapiens, one dose 10 µM): 53.5%; Growth % (NCI-H322M; one dose 10 µM): 46.45%; TGI (NCI-H460; 5-dose, 48 h): 91100 nM; GI50 (NCI-H460; Homo sapiens, 5-dose, 48 h): 356 nM; inhibition at 10 µM (NCI-H460; Homo sapiens, one dose 10 µM): 92.9%; Growth % (NCI-H460; one dose 10 µM): 7.06%; TGI (COLO 205; 5-dose, 48 h): 503 nM; GI50 (COLO 205; Homo sapiens, 5-dose, 48 h): 156 nM; CC50 (COLO 205; [2]): 8230 nM; inhibition at 10 µM (COLO 205; Homo sapiens, one dose 10 µM): 168%; Growth % (COLO 205; one dose 10 µM): -68%; TGI (HCC-2998; 5-dose, 48 h): >100000 nM; GI50 (HCC-2998; Homo sapiens, 5-dose, 48 h): 406 nM; inhibition at 10 µM (HCC-2998; Homo sapiens, one dose 10 µM): 67.1%; Growth % (HCC-2998; one dose 10 µM): 32.93%; TGI (HCT-116; 5-dose, 48 h): >100000 nM; GI50 (HCT-116; Homo sapiens, 5-dose, 48 h): 32.5 nM; inhibition at 10 µM (HCT-116; Homo sapiens, one dose 10 µM): 94.4%; Growth % (HCT-116; one dose 10 µM): 5.59%; TGI (HT29; 5-dose, 48 h): >100000 nM; GI50 (HT29; Homo sapiens, HT-29, 5-dose, 48 h): 134 nM; inhibition at 10 µM (HT29; Homo sapiens, HT-29, one dose 10 µM): 96.3%; Growth % (HT29; one dose 10 µM): 3.73%; TGI (SW-620; 5-dose, 48 h): >100000 nM; GI50 (SW-620; Homo sapiens, 5-dose, 48 h): 56.2 nM; inhibition at 10 µM (SW-620; Homo sapiens, one dose 10 µM): 71.3%; Growth % (SW-620; one dose 10 µM): 28.73%; TGI (SF-295; 5-dose, 48 h): >100000 nM; GI50 (SF-295; Homo sapiens, 5-dose, 48 h): 53.5 nM; inhibition at 10 µM (SF-295; Homo sapiens, one dose 10 µM): 81.4%; Growth % (SF-295; one dose 10 µM): 18.61%; TGI (SNB-75; 5-dose, 48 h): >100000 nM; GI50 (SNB-75; Homo sapiens, 5-dose, 48 h): > 100000 nM; inhibition at 10 µM (SNB-75; Homo sapiens, one dose 10 µM): 49.1%; Growth % (SNB-75; one dose 10 µM): 50.89%; TGI (U251; 5-dose, 48 h): >100000 nM; GI50 (U251; Homo sapiens, U-251, 5-dose, 48 h): 23.6 nM; inhibition at 10 µM (U251; Homo sapiens, U-251, one dose 10 µM): 88.1%; Growth % (U251; one dose 10 µM): 11.86%; TGI (LOX IMVI; 5-dose, 48 h): >100000 nM; GI50 (LOX IMVI; Homo sapiens, 5-dose, 48 h): 90.4 nM; inhibition at 10 µM (LOX IMVI; Homo sapiens, one dose 10 µM): 76%; Growth % (LOX IMVI; one dose 10 µM): 23.98%; GI50 (MDA-MB-435; Homo sapiens, 5-dose, 48 h): 29.1 nM; inhibition at 10 µM (MDA-MB-435; Homo sapiens, one dose 10 µM): 99.7%; Growth % (MDA-MB-435; one dose 10 µM): 0.35%; TGI (SK-MEL-2; 5-dose, 48 h): >100000 nM; GI50 (SK-MEL-2; Homo sapiens, 5-dose, 48 h): 303 nM; inhibition at 10 µM (SK-MEL-2; Homo sapiens, one dose 10 µM): 41.2%; Growth % (SK-MEL-2; one dose 10 µM): 58.83%; TGI (SK-MEL-28; 5-dose, 48 h): >100000 nM; GI50 (SK-MEL-28; Homo sapiens, 5-dose, 48 h): 15800 nM; inhibition at 10 µM (SK-MEL-28; Homo sapiens, one dose 10 µM): 42.3%; Growth % (SK-MEL-28; one dose 10 µM): 57.74%; TGI (SK-MEL-5; 5-dose, 48 h): 350 nM; GI50 (SK-MEL-5; Homo sapiens, 5-dose, 48 h): 45.6 nM; CC50 (SK-MEL-5; [2]): 91300 nM; inhibition at 10 µM (SK-MEL-5; Homo sapiens, one dose 10 µM): 131%; Growth % (SK-MEL-5; one dose 10 µM): -31.46%; TGI (OVCAR-4; 5-dose, 48 h): >100000 nM; GI50 (OVCAR-4; Homo sapiens, 5-dose, 48 h): 966 nM; inhibition at 10 µM (OVCAR-4; Homo sapiens, one dose 10 µM): 45.1%; Growth % (OVCAR-4; one dose 10 µM): 54.92%; GI50 (RXF 393; 5-dose, 48 h): 39.8 nM; TGI (RXF 393; 5-dose, 48 h): 60000 nM; GI50 (RXF 393; Homo sapiens, RXF 393, 48 h, 5-dose, 48 h): 39 nM; inhibition at 10 µM (RXF 393; Homo sapiens, one dose 10 µM): 71.2%; Growth % (RXF 393; one dose 10 µM): 28.8%; TGI (TK-10; 5-dose, 48 h): >100000 nM; GI50 (TK-10; Homo sapiens, 5-dose, 48 h): 38600 nM; inhibition at 10 µM (TK-10; Homo sapiens, one dose 10 µM): 35.6%; Growth % (TK-10; one dose 10 µM): 64.4%; TGI (DU-145; 5-dose, 48 h): >100000 nM; GI50 (DU-145; Homo sapiens, 5-dose, 48 h): 269 nM; inhibition at 10 µM (DU-145; Homo sapiens, one dose 10 µM): 90.5%; Growth % (DU-145; one dose 10 µM): 9.46%; TGI (MDA-MB-231/ATCC; 5-dose, 48 h): >100000 nM; GI50 (MDA-MB-231/ATCC; Homo sapiens, 5-dose, 48 h): 355 nM; inhibition at 10 µM (MDA-MB-231/ATCC; Homo sapiens, one dose 10 µM): 80.3%; Growth % (MDA-MB-231/ATCC; one dose 10 µM): 19.65%
